Laboratory results: the NIST ThermoML archive (doi:10.1016/j.jct.2015.03.019)
± gives the expanded uncertainty stated by the source.

Conditions: for molar entropy: Small (less than 1 g) adiabatic calorimetry; for vapor or sublimation pressure: Transpiration method

CC(C)(C)c1ccc(Oc2ccccc2)cc1 [4-tert-butylphenyl phenyl ether]
molar entropy [J/K/mol], 101.33 kPa
Conditions	Crystal	Liquid
5 K	0.2278 ± 0.032	–
10 K	1.746 ± 0.17	–
15 K	5.404 ± 0.17	–
20 K	10.73 ± 0.33	–
25 K	17.29 ± 0.42	–
30 K	24.28 ± 0.42	–
35 K	31.51 ± 0.42	–
40 K	38.91 ± 0.42	–
45 K	46.23 ± 0.5	–
50 K	53.46 ± 0.58	–
60 K	67.76 ± 0.67	–
70 K	81.81 ± 0.83	–
80 K	95.45 ± 1	–
90 K	108.59 ± 1.1	–
100 K	121.31 ± 1.2	–
110 K	133.7 ± 1.2	–
120 K	145.84 ± 1.4	–
130 K	157.73 ± 1.4	–
140 K	169.45 ± 1.6	–
150 K	180.92 ± 1.7	–
160 K	192.23 ± 1.8	–
170 K	203.29 ± 1.8	–
180 K	214.26 ± 2	–
190 K	225.07 ± 2.1	–
200 K	235.72 ± 2.2	–
210 K	246.36 ± 2.2	–
220 K	256.83 ± 2.2	–
230 K	267.23 ± 2.4	–
240 K	277.54 ± 2.5	–
250 K	287.85 ± 2.6	–
260 K	298.16 ± 2.7	–
270 K	308.47 ± 2.8	–
280 K	318.69 ± 2.8	–
290 K	328.92 ± 3	–
298.15 K	337.23 ± 3.2	–
300 K	339.15 ± 3.1	–
310 K	349.29 ± 3.2	–
320 K	359.35 ± 3.2	–
327.84 K	367.17 ± 3.2	434.26 ± 3.8
330 K	–	436.76 ± 3.8
340 K	–	448.48 ± 4
350 K	–	460.04 ± 4
360 K	–	471.51 ± 4.2
370 K	–	482.82 ± 4.2

Conditions	mass density [kg/m3]
298.15 K, 101.33 kPa, Crystal, Pycnometric method	997.5 ± 4.5

Conditions	Triple point temperature [K]	vapor or sublimation pressure [kPa]
298.46 K, Crystal	–	4.8e-05 ± 3e-06
299.37 K, Crystal	–	5.3e-05 ± 3e-06
300.45 K, Crystal	–	6.1e-05 ± 4e-06
303.52 K, Crystal	–	9.5e-05 ± 5e-06
306.47 K, Crystal	–	0.000135 ± 7e-06
310.47 K, Crystal	–	0.000222 ± 1.1e-05
310.5 K, Crystal	–	0.000229 ± 1.2e-05
312.53 K, Crystal	–	0.000285 ± 1.5e-05
314.45 K, Crystal	–	0.000363 ± 1.9e-05
315.5 K, Crystal	–	0.000405 ± 2.1e-05
316.51 K, Crystal	–	0.000466 ± 2.6e-05
317.52 K, Crystal	–	0.00055 ± 3e-05
318.5 K, Crystal	–	0.000621 ± 3.2e-05
319.52 K, Crystal	–	0.000689 ± 3.5e-05
320.55 K, Crystal	–	0.000755 ± 3.9e-05
321.53 K, Crystal	–	0.000855 ± 4.4e-05
322.52 K, Crystal	–	0.00095 ± 4.8e-05
323.45 K, Crystal	–	0.001031 ± 5.5e-05
323.55 K, Crystal	–	0.001042 ± 5.5e-05
324.53 K, Crystal	–	0.001212 ± 6.6e-05
Crystal, Adiabatic calorimetry	327.84 ± 0.04	–
